biological target: T1, recombinant human ACC2 (Homo sapiens, UniProt O00763); experiment: Measurement of inhibitory activity on human ACC2 (MALDI-TOF MS, acetyl CoA to malonyl CoA conversion); format: biochemical; settings: inhibition activity on human ACC2, Table 84; read-out: IC50
T1 construct: a cDNA encoding human ACC2 (27-2458) was cloned from human kidney cDNA library (Clontech); His-tag (N); made in house; host or cells: Sf-9 insect cells (Bac-to-Bac baculovirus)
T1 sequence (O00763 27-2458): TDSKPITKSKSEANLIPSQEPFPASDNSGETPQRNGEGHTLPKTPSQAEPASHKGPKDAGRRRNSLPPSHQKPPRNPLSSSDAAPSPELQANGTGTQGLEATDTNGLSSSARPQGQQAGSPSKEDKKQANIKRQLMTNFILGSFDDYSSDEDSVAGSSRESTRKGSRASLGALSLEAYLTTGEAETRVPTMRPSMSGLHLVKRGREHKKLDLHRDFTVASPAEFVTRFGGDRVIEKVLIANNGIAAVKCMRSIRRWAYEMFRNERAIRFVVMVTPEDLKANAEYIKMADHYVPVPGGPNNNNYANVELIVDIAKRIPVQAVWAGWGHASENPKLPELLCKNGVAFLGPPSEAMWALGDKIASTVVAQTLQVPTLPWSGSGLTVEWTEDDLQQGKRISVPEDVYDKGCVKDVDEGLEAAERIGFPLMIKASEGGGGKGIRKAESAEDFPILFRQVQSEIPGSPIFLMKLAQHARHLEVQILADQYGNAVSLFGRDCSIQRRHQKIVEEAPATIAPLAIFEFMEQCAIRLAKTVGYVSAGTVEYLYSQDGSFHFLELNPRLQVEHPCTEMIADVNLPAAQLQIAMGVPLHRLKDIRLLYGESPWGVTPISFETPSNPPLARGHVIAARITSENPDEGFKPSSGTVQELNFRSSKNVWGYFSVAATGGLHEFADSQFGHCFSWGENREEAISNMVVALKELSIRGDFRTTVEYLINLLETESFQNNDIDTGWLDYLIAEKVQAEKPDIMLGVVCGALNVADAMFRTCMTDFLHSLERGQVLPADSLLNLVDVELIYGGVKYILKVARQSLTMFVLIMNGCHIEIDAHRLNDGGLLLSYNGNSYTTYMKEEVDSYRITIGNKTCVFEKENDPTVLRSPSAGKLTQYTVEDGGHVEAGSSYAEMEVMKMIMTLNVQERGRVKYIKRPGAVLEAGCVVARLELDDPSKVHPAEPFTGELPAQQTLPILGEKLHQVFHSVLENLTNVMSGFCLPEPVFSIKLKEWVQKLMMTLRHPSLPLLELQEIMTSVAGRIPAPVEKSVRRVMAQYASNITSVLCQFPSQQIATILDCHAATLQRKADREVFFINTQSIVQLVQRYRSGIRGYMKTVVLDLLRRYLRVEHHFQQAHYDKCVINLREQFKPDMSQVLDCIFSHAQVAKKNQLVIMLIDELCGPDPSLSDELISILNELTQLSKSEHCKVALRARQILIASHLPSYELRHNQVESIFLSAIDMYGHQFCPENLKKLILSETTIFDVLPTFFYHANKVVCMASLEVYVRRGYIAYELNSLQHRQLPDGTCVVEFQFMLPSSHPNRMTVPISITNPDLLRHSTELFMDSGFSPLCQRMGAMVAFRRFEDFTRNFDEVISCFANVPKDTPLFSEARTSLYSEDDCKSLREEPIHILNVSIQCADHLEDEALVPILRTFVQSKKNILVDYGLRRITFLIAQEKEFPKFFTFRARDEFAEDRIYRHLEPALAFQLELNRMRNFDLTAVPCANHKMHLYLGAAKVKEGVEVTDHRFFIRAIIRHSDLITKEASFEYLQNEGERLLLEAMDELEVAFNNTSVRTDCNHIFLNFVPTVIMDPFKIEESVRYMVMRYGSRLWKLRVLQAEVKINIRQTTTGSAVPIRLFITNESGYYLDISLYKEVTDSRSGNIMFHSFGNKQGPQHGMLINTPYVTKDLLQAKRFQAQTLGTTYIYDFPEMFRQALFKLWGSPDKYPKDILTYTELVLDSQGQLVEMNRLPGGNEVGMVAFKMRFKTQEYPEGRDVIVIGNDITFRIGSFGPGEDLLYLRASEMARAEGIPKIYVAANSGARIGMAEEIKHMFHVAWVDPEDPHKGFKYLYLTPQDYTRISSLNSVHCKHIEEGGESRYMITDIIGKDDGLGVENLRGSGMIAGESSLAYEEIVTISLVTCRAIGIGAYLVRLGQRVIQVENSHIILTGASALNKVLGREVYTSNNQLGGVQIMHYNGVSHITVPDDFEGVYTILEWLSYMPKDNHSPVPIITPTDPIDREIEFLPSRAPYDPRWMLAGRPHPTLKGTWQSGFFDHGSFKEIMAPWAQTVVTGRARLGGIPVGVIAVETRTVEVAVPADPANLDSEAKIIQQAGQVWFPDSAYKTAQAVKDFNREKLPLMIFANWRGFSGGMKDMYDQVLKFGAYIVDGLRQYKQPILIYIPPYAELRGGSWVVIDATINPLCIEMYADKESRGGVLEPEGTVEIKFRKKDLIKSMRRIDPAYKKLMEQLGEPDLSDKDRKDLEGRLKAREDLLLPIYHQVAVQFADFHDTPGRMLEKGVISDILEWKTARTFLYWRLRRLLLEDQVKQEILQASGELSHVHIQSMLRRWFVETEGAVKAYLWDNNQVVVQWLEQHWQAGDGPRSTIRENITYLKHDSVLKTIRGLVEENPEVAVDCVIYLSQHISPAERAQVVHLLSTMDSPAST

IC50 [nM] | SMILES
12 | CCCc1ccc(Oc2ccc(/C=C(\F)[C@H](C)NC(C)=O)cn2)c(Cl)c1 [Compound I-459]
130 | C/C=C/c1ccc(Oc2ccc(/C=C/[C@H](C)NC(C)=O)cn2)c(Cl)c1 [Compound I-460]
1500 | CC(=O)N[C@@H](C)/C=C/c1ccc(Oc2ccc3nc(C)oc3c2)nc1 [Compound I-461]
19 | CC(=O)N[C@@H](C)/C=C/c1ccc(Oc2ccc(Oc3ccccc3)cc2Cl)nc1 [Compound I-462]
68 | CC(=O)N[C@@H](C)/C=C/c1ccc(Oc2ccc(Oc3ccccn3)cc2Cl)nc1 [Compound I-463]
120 | CC(=O)N[C@@H](C)/C=C/c1ccc(Oc2ccc(Oc3cccnc3)cc2Cl)nc1 [Compound I-464]
120 | CC(=O)N[C@@H](C)/C=C/c1ccc(Oc2ccc(Oc3ccncc3)cc2Cl)nc1 [Compound I-465]
16 | CC(=O)N[C@@H](C)/C=C/c1ccc(Oc2ccc3c(c2Cl)CCC3(F)F)nc1 [Compound I-466]
43 | CCCC(F)(CC)c1ccc(Oc2ccc(/C=C/[C@H](C)NC(C)=O)cn2)c(Cl)c1 (stereo partly drawn) [Compound I-467]
90 | CC(=O)N[C@@H](C)/C=C/c1ccc(Oc2ccc3c(c2)CCN(CC2CC2)C3=O)nc1 [Compound I-468]
36 | CCCc1cccc(Oc2ccc(/C=C/[C@H](C)NC(C)=O)cn2)c1Cl [Compound I-469]
230 | CCCc1cc(Cl)cc(Oc2ccc(/C=C/[C@H](C)NC(C)=O)cn2)c1 [Compound I-470]
16 | CCOc1ccc(Oc2ccc(/C=C(\F)[C@H](C)NC(C)=O)cn2)c(Cl)c1 [Compound I-471]
37 | CC(=O)N[C@@H](C)/C=C/c1ccc(Oc2ccc3c(c2)OCCO3)nc1 [Compound I-472]
39 | CCC(F)(F)c1ccc(Oc2cnc(/C=C/[C@H](C)NC(C)=O)cn2)c(Cl)c1 [Compound I-473]
9.7 | CCc1nc2ccc(Oc3ccc(/C=C/[C@H](C)NC(C)=O)cn3)c(Cl)c2s1 [Compound I-474]
170 | CCCc1ccc(Cl)c(Oc2ccc(/C=C/[C@H](C)NC(C)=O)cn2)c1 [Compound I-475]
240 | C/C=C(\CC)c1ccc(Oc2ccc(/C=C/[C@H](C)NC(C)=O)cn2)c(Cl)c1 [Compound I-476]
6.9 | CC(=O)N[C@@H](C)/C=C/c1ccc(Oc2ccc3nc(C(C)C)sc3c2Cl)nc1 [Compound I-477]
550 | CC(=O)N[C@@H](C)/C=C/c1ccc(Oc2cc3sc(C)nc3cc2Cl)nc1 [Compound I-478]
440 | CC(=O)N[C@@H](C)/C=C/c1ccc(Oc2cc3c(cc2Cl)OCC3)nc1 [Compound I-479]

IC50 [nM] | SMILES
520 | CCN1CCc2cc(Oc3ccc(/C=C/[C@H](C)NC(C)=O)cn3)ccc2C1=O [Compound I-480]
13 | CC(=O)N[C@@H](C)/C=C/c1ccc(Oc2ccc3nc(C(F)(F)F)sc3c2)nc1 [Compound I-481]
8.1 | CC(=O)N[C@@H](C)/C=C/c1ccc(Oc2ccc3c(c2)OC(F)(F)C(F)(F)O3)nc1 [Compound I-482]
52 | CC(=O)N[C@@H](C)/C=C/c1ccc(Oc2ccc3c(c2)OC(F)(F)O3)nc1 [Compound I-483]
160 | CSc1ncc(Oc2ccc(/C=C/[C@H](C)NC(C)=O)cn2)cn1 [Compound I-484]
130 | CCCc1cc(Oc2ccc(/C=C/[C@H](C)NC(C)=O)cn2)ccc1Cl [Compound I-485]
110 | CC(=O)N[C@@H](C)/C=C/c1ccc(Oc2ccc3c(C)nsc3c2)nc1 [Compound I-486]
38 | CCc1nc2cc(Cl)c(Oc3ccc(/C=C/[C@H](C)NC(C)=O)cn3)cc2s1 [Compound I-487]
11 | CC(=O)N[C@@H](C)/C=C/c1ccc(Oc2cc3sc(C(C)C)nc3cc2Cl)nc1 [Compound I-488]
550 | CCOc1ccc(Oc2ccc(/C=C/[C@H](C)NC(C)=O)nc2)c(Cl)c1 [Compound I-489]
42 | CC(=O)N[C@@H](C)/C=C/c1ccc(Oc2ccc(OCC3CC3)cc2Cl)cn1 [Compound I-490]
5.8 | CC(=O)N[C@@H](C)/C=C/c1ccc(Oc2ccc3nc(C(F)(F)F)sc3c2Cl)nc1 [Compound I-491]
80 | CC(=O)N[C@@H](C)/C=C/c1ccc(Oc2cnc(OCC3CC3)nc2)nc1 [Compound I-492]
150 | CC(=O)N[C@@H](C)/C=C/c1ccc(Oc2ccc(-c3ncc(F)cn3)cc2)nc1 [Compound I-493]
14 | CC(=O)N[C@@H](C)/C=C/c1ccc(Oc2ccc(C3CC3C)cc2Cl)nc1 (stereo partly drawn) [Compound I-494]
21 | CCc1nc2ccc(Oc3ccc(/C=C/[C@H](C)NC(C)=O)cn3)cc2o1 [Compound I-495]
210 | CCCc1ccc(Oc2ccc(/C=C/[C@H](C)NC(C)=O)nc2)c(Cl)c1 [Compound I-496]
51 | CC(=O)N[C@@H](C)/C=C/c1cnc(Oc2ccc(C(C)(C)C)cc2Cl)cn1 [Compound I-497]
27 | CC(=O)N[C@@H](C)/C=C/c1ccc(Oc2ccc3c(c2)CC(C)(C)O3)nc1 [Compound I-498]
96 | CC(=O)N[C@@H](C)/C=C/c1ccc(Oc2cnc(N3CCCCC3)nc2)nc1 [Compound I-499]
8.9 | CC(=O)N[C@@H](C)/C=C/c1ccc(Oc2ccc3nc(C(C)C)oc3c2)nc1 [Compound I-500]

IC50 [nM] | SMILES
31 | CC(=O)N[C@@H](C)/C=C/c1ccc(Oc2ccc3sc(C)nc3c2Cl)nc1 [Compound I-501]
7.1 | CC(=O)N[C@@H](C)/C=C/c1ccc(Oc2ccc3nc(C(C)(C)C)sc3c2Cl)nc1 [Compound I-502]
5.1 | CC(=O)N[C@@H](C)/C=C/c1ccc(Oc2ccc(-c3ccccc3)c(Cl)c2)nc1 [Compound I-503]
6.5 | CC(=O)N[C@@H](C)/C=C/c1ccc(Oc2ccc3nc(C(C)(C)C)sc3c2)nc1 [Compound I-504]
45 | CCOc1ccc(OCc2cccc(/C=C/[C@H](C)NC(C)=O)n2)c(Cl)c1 [Compound I-505]
8.2 | CCOc1ccc(OCc2cccc(/C=C/[C@H](C)NC(C)=O)c2)c(Cl)c1 [Compound I-506]
43 | CC(=O)N[C@@H](C)/C=C/c1ccc(Oc2cc3c(cc2Cl)OC(C)(C)C3)nc1 [Compound I-507]
230 | CC(=O)N[C@@H](C)/C=C/c1cnc(Oc2cc3c(cc2Cl)OC(C)(C)C3)cn1 [Compound I-508]
23 | CC(=O)N[C@@H](C)/C=C/c1ccc(Oc2ccc3nc(C)sc3c2C#N)nc1 [Compound I-509]
6 | CC(=O)N[C@@H](C)/C=C/c1cnc(Oc2ccc3nc(C(F)(F)F)sc3c2Cl)cn1 [Compound I-510]
88 | CC(=O)N[C@@H](C)/C=C/c1ccc(Oc2ccc3c(c2Cl)CCN(CC2CC2)C3=O)nc1 [Compound I-511]
140 | CC(=O)N[C@@H](C)/C=C/c1ccc(Oc2ccc(CC(C)(C)C)cc2Cl)cn1 [Compound I-512]
27 | CC(=O)N[C@@H](C)/C=C/c1ccc(Oc2ccc(C3=CCC4(CC3)CC4)cc2Cl)cn1 [Compound I-513]
96 | CC(=O)N[C@@H](C)/C=C/c1ccc(Oc2ccc(-c3ccc(F)cc3)cc2)nc1 [Compound I-514]
860 | CC(=O)N[C@@H](C)/C=C/c1ccc(Oc2ccc(-c3ccc(C#N)cc3)cc2)nc1 [Compound I-515]
170 | CC(=O)N[C@@H](C)/C=C/c1ccc(Oc2ccc(N3CCCCC3)nc2)nc1 [Compound I-516]
47 | CC(=O)N[C@@H](C)/C=C/c1ccc(Oc2cnc(N3CCC(F)(F)CC3)nc2)nc1 [Compound I-517]
800 | CC(=O)N[C@@H](C)/C=C/c1ccc(Oc2ccc3c(c2)C(=O)N(CC2CC2)CC3)nc1 [Compound I-518]
59 | CC(=O)N[C@@H](C)/C=C/c1ccc(Oc2ccc3c(c2)OC(C)(C)C3)nc1 [Compound I-519]
75 | CC(=O)N[C@@H](C)/C=C/c1ccc(Oc2cnc(N3CCC(F)CC3)nc2)nc1 [Compound I-520]
560 | CCOc1ccc(Oc2ccc(/C=C/C(C)CNC(C)=O)cn2)c(Cl)c1 (stereo not drawn) [I’-1]

biological target: T2, recombinant human ACC1 (Homo sapiens, UniProt Q13085); experiment: Measurement of inhibitory activity on human ACC1 (MALDI-TOF MS, acetyl CoA to malonyl CoA conversion); format: biochemical; settings: not given
T2 construct: a cDNA encoding human ACC1 (1-2346) was cloned from human liver cDNA library (BioChain); myc-tag (C); His-tag (C); made in house; host or cells: Sf-9 insect cells (baculovirus, FlashBACGOLD)
From the text: Recombinant baculovirus was generated using FlashBACGOLD system (Oxford Expression Technologies) according to the manufacturer's protocol. To express human ACC1, Sf-9 cells were infected with recombinant baculovirus. After infected cells were disrupted, the filtrated lysate was subjected to Ni-affinity chromatography and anion-exchange chromatography. The fractions containing human ACC1 protein were pooled as recombinant human ACC1 solution.
Recombinant human ACC1 and recombinant human ACC2, which were prepared by the method mentioned above, were preincubated with assay buffer solution (50 mM HEPES-KOH (pH 7.4), 10 mM magnesium chloride, 6-10 mM potassium citrate, 4 mM reduced form of glutathione, 1.5 mg/ml bovine serum albumin) for one hour. Then, 0.2 μL of each this invention compound solution (in DMSO) were dispensed to 384-well microplate, 5 μL of the preincubated enzyme solution and 5 μL of substrate solution (50 mM HEPES-KOH (pH 7.4), 1 mM ATP, 0.8 mM acetyl CoA and 25-50 mM potassium bicarbonate) were added to microplate. After centrifugation and shaking, the reaction mixtures were incubated in a humidified box at room temperature for 1 to 3 hours. After the incubation, the enzyme reactions were stopped by the addition of EDTA. Then, after the samples were cocrystallized with CHCA (α-cyano-4-hydroxy cinnamic acid) matrices on MALDI target plate, by using the matrix assist laser […] time-of-flight mass spectrometer (MALDI-TOF MS), samples were measured in reflector negative mode. Deprotonated ions of acetyl CoA (AcCoA) of substrate and malonyl CoA (MalCoA) of the reaction product were detected, then, the conversion rates of acetyl CoA to malonyl CoA was calculated by the intensity of [MalCoA-H]-/(Intensity of [MalCoA-H]-+Intensity of [AcCoA-H]-) using each signal strength. […] In addition, potassium citrate concentrations in assay buffer solution, potassium hydrogen carbonate concentrations in substrate solution and incubation time were adjusted by each lot of enzyme.

IC50 [µM] | SMILES
> 100 | CCOc1ccc(Cc2ccc(/C=C/[C@H](C)NC(C)=O)cn2)c(Cl)c1 [Compound I-60]

same assay, conditions: recombinant human ACC1, MALDI-TOF MS readout; read-out: 50% inhibitory concentration (1050) on human ACCT

IC50 [µM] | SMILES
> 100 | CC(=O)N[C@@H](C)/C=C/c1cnc(Oc2ccc(OCC3CC3)cc2Cl)s1 [Compound I-1]
> 100 | CCCc1ccc(Oc2ccc(/C=C/[C@H](C)NC(C)=O)cn2)c(Cl)c1 [Compound I-30]
